This is an account of results in ChEMBL document CHEMBL1201862, “PubChem BioAssay data set” (2004).

What all share (type): functional
In test [1] the target is Phospholipase A2 (Homo sapiens, UniProt P04054).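 Further: confirmatory dose-response counterscreen on phospholipase A2, testing hits that came from an ultra-high-throughput screen for ATG4B inhibitors.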
In test [2] the target is Cysteine protease ATG4B (Homo sapiens, UniProt Q9Y4P1).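 Further: Fluorescence-based dose-response confirmation assay measuring inhibition of ATG4B activity.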
Cysteine protease ATG4B, sequence (Q9Y4P1 whole entry): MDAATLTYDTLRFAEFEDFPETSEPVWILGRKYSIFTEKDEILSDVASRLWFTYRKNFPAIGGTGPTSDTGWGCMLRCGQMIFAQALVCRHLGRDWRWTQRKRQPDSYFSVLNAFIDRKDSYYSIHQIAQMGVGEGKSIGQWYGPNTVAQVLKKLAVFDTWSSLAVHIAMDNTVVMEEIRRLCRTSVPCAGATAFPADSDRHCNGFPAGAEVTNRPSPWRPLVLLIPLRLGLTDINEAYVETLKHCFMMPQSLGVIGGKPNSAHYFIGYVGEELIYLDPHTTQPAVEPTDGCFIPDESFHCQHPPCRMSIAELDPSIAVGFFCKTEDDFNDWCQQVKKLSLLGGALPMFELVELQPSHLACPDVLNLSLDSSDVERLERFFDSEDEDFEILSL
For test [3], the target named is T1, Leucine aminopeptidase (Plasmodium falciparum 3D7, UniProt Q8IL11).
T1 sequence (Q8IL11 whole entry): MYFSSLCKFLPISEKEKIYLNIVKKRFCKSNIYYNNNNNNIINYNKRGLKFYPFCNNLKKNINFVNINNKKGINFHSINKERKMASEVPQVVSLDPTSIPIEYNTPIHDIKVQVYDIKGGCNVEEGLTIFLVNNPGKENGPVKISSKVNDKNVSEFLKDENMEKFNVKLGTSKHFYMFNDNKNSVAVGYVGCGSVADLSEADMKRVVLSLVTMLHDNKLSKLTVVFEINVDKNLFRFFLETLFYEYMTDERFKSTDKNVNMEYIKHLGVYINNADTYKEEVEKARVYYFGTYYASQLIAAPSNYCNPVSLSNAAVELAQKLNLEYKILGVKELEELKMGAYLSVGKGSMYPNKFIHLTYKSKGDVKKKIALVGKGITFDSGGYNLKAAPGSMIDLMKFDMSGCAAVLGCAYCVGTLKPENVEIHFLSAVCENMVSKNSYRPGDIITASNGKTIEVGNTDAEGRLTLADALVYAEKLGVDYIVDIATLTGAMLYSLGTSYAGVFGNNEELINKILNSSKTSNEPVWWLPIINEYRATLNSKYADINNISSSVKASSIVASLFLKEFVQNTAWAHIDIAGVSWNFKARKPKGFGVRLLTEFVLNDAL
Description: P. falciparum M17LAP inhibitors, primary screen, biochemical, fluorogenic H-Leu-NHMec substrate, 1536-well (AID 1619).

The target in test [4] is T2, Sentrin-specific protease 8 (Homo sapiens, UniProt Q96LD8).
T2 sequence (Q96LD8 whole entry): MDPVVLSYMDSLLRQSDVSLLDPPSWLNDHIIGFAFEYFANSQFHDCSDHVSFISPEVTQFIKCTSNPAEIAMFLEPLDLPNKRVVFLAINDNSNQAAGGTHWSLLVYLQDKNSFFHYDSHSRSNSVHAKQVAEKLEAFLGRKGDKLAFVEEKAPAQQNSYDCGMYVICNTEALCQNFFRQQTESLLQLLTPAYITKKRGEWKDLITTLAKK
Description: inhibition of human SENP8 cleavage activity – biochemical, luminescence, SAR follow-up (AID 504501).

The target of test [5] is T3, Sentrin-specific protease 7 (Homo sapiens, UniProt Q9BQF6).
T3 sequence (Q9BQF6 whole entry): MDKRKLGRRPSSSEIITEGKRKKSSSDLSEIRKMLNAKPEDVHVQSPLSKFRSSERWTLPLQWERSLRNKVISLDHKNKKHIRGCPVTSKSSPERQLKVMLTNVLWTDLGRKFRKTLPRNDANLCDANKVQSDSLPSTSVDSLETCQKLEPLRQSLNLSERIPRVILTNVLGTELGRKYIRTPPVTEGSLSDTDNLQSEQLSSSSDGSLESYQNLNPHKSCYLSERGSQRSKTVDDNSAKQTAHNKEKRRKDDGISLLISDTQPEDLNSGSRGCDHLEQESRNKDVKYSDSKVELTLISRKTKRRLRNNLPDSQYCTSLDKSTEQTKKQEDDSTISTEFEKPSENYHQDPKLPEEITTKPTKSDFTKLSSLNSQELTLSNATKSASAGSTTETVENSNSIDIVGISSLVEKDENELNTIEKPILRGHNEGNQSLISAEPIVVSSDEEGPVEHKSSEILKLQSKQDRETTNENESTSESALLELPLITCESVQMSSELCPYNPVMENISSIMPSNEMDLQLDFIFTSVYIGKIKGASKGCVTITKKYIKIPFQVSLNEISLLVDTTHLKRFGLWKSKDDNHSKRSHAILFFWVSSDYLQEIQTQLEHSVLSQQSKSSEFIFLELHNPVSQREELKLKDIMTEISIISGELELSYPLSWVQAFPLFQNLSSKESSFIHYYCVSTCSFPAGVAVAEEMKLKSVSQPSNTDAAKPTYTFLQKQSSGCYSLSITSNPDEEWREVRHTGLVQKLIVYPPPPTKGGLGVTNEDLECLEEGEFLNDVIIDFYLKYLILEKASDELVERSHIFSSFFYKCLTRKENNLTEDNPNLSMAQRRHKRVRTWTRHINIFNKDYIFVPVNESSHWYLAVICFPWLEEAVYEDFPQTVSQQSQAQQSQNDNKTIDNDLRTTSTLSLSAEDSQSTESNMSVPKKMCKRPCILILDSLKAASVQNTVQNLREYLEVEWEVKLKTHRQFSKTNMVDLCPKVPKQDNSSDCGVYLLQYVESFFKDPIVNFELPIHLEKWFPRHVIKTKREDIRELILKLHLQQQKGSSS
Description: inhibition of human SENP7 cleavage activity – biochemical, luminescence, SAR follow-up (AID 504497).

The target in test [6] is T4, Sentrin-specific protease 6 (Homo sapiens, UniProt Q9GZR1).
T4 sequence (Q9GZR1 whole entry): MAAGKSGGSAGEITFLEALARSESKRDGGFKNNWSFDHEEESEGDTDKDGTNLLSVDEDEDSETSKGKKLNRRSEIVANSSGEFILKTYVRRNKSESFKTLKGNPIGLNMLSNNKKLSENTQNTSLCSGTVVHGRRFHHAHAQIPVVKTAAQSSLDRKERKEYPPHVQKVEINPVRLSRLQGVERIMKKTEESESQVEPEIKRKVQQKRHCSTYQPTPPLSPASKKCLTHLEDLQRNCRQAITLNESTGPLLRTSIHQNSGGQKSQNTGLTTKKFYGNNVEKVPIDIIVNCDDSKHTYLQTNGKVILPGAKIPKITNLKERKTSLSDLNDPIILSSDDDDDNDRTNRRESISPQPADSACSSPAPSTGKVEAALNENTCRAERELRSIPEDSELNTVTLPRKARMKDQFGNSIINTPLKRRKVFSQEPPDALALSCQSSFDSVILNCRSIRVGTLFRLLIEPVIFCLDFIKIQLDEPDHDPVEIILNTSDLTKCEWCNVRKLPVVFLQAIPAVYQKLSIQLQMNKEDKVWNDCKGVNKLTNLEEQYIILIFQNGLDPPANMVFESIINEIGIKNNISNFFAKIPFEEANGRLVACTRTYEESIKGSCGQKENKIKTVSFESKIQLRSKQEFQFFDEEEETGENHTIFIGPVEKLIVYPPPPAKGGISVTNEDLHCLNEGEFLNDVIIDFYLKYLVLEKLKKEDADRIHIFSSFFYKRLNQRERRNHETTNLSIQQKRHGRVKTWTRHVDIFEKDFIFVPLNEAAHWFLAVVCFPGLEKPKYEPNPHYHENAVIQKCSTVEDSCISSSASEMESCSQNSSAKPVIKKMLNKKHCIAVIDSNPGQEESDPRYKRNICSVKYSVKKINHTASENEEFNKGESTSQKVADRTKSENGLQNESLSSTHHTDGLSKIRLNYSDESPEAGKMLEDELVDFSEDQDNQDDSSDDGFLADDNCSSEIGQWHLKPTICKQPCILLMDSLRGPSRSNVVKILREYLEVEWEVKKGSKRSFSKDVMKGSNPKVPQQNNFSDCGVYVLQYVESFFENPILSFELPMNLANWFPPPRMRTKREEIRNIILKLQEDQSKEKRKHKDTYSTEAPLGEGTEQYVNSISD
Put plainly: SAR Analysis of small molecule inhibitors of Sentrin-specific protease 6 (SENP6) using a Luminescent assay. [Related pubchem assays (depositor defined):AID2582, AID2599].

The target in test [7] is T5, Caspase-3 (Homo sapiens, UniProt P42574).
T5 sequence (P42574 whole entry): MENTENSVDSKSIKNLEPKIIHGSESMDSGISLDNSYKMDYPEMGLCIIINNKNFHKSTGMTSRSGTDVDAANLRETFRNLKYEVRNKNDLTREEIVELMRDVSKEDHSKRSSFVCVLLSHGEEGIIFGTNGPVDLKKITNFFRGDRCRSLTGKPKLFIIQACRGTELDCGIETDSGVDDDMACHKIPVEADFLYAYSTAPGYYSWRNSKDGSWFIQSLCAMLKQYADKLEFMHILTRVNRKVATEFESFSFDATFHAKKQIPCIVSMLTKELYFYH
Description: SAR Analysis of small molecule inhibitors of Sentrin-specific proteases (SENPs) using a Caspase-3 Selectivity assay. [Related pubchem assays (depositor defined):AID2540, AID2599, AID434973, AID489001].

In test [8] the target is T6, Corticotropin-releasing factor receptor 2/Corticotropin-releasing factor-binding protein (Homo sapiens, UniProt P24387+Q13324).
T6 sequence (Q13324 whole entry): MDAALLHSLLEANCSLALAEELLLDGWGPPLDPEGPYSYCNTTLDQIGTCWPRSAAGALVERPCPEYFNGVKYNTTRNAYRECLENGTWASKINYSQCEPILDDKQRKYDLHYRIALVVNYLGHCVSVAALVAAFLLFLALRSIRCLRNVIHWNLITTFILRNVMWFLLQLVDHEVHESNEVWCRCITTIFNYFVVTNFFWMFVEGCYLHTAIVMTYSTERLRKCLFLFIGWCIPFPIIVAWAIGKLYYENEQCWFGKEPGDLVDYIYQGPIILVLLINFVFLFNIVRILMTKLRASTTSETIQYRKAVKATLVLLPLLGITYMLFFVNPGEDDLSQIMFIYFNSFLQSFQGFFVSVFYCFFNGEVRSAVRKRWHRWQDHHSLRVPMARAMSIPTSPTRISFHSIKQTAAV
T6 sequence (P24387 whole entry): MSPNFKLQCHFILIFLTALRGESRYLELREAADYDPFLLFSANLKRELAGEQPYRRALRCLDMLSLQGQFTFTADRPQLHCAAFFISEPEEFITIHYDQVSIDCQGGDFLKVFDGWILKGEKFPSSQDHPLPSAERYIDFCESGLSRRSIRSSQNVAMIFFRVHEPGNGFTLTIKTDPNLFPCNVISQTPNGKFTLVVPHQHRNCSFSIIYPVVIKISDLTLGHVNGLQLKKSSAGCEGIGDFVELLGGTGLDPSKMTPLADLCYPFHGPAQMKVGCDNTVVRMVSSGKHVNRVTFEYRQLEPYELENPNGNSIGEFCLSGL
Description: activators of CRF receptor 2 with binding protein – uHTS hits, confirmation (AID 602473). The note with it: read-out: EC50_Mean.

In test [9] the target is Apoptotic protease-activating factor 1 (Homo sapiens, UniProt O14727).
Apoptotic protease-activating factor 1, sequence (O14727 whole entry): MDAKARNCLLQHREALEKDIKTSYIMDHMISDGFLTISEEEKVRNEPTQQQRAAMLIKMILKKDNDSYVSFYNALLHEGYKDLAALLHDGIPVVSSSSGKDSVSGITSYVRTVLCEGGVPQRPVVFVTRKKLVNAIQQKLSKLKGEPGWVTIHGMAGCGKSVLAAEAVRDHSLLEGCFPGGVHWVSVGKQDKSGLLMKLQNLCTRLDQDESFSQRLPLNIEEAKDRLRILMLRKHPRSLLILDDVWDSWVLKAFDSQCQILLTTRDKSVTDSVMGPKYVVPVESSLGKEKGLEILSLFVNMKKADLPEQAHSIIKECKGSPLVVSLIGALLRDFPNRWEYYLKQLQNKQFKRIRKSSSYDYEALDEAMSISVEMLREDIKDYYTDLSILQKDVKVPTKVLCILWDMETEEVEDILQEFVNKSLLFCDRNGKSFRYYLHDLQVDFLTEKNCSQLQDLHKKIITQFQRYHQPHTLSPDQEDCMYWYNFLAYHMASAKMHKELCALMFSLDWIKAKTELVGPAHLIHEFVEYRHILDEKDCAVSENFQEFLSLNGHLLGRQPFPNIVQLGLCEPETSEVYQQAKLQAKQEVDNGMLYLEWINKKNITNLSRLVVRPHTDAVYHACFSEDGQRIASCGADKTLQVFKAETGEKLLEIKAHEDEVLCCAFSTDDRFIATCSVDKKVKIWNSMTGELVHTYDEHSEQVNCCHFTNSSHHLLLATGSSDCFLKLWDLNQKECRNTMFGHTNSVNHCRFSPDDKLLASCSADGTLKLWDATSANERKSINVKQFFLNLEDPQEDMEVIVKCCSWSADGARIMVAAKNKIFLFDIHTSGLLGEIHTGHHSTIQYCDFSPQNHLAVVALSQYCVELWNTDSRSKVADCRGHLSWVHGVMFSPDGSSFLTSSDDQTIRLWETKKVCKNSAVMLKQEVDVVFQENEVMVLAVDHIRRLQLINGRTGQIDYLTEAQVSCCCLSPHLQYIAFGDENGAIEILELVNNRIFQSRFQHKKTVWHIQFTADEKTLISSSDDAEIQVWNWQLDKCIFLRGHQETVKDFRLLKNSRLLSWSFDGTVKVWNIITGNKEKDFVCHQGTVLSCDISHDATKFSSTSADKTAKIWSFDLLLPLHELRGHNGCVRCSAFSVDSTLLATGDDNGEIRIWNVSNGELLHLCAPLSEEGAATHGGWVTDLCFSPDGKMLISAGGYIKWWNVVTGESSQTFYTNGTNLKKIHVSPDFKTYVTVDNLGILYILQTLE
The target in test [10] is T6, Corticotropin-releasing factor receptor 2/Corticotropin-releasing factor-binding protein. Description: Dose Response confirmation of uHTS hits for small molecule antagonists of the CRF-binding protein and CRF-R2 receptor complex. The note with it: read-out: IC50_Mean.

The source made the active and inactive calls. For most assays here, no stated cut-off is given here; in the data, actives have a measured IC50 and inactives only a lower limit. Some results are limits rather than exact numbers.

Phospholipase A2, sequence (P04054 whole entry): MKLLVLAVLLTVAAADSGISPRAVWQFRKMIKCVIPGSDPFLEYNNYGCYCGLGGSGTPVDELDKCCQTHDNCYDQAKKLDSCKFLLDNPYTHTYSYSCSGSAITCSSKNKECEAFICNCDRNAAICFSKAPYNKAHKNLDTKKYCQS

As for `CCOc1cc(/C=C2/SC(=O)N(CC(=O)N3CCc4ccccc4C3)C2=O)ccc1OCC(=O)O`, the figures for the IC50 in test [1], in [2] and in test [3] were 11 µM (active), 15 µM (active) and 10.6 µM (active), respectively.

Take `Oc1ccc(Br)cc1/C=N/Nc1cc(N2CCCC2)nc(N2CCCC2)n1`: the IC50 in test [4], in test [5], in test [6] and in [7] was > 99 µM (inactive) each time.

Regarding `CCCCCn1c(=O)c(C(=O)Nc2c(C)n(C)n(-c3ccccc3)c2=O)c(O)c2ccccc21`, in [8], the EC50 is > 53 µM (inactive). The IC50 in test [9] is > 100 µM (inactive); in test [10] it was > 47.1 µM (inactive).
